Test results reported in paper PMC6476926, “Dichloro-Phenyl-Benzotriazoles: A New Selective Class of Human Respiratory Syncytial Virus Entry Inhibitors” (Frontiers in Chemistry, 2019).
“Also recorded” adds a separate entry of the source.

How the values were obtained:
[1] = system: RSV; assay: microbe, parasite or virus in culture; assay type: cell-based, Human Respiratory Syncytial Virus (RSV) strain A2; conditions: human respiratory syncytial virus, Vero 76, read-out: EC50 RSV
[2] = system: HIV-1IIIB; assay: microbe, parasite or virus in culture; assay type: cell-based, Human Immunodeficiency Virus type-1 (HIV-1); conditions: Human immunodeficiency virus 1, MT4, read-out: EC50 HIV-1IIIB
[3] = system: BVDV; assay: microbe, parasite or virus in culture; assay type: cell-based; conditions: Bovine viral diarrhea virus isolates and strains, MDBK, read-out: EC50 BVDV
[4] = system: YFV; assay: microbe, parasite or virus in culture; assay type: cell-based; conditions: Yellow fever virus, BHK, read-out: EC50 YFV
[5] = system: Reo-1; assay: microbe, parasite or virus in culture; assay type: cell-based, Reovirus type-1 (Reo-1); conditions: Reovirus sp., BHK, read-out: EC50 Reo-1
[6] = system: CV-B5; assay: microbe, parasite or virus in culture; assay type: cell-based, Human Enterovirus B [coxsackie type B5 (CV-B5)]; conditions: Enterovirus B, CVB5, Vero 76, read-out: EC50 CV-B5
[7] = system: Sb-1, VSV, VV, HSV-1; assay: organism not typed; assay type: cell-based; conditions: Vero 76, read-out: EC50 Sb-1, VSV, VV, HSV-1
[8] = system: RSV strain B1 cp-52; assay: microbe, parasite or virus in culture; assay type: cell-based; conditions: human respiratory syncytial virus, Vero 76, read-out: 50% inhibitory concentration RSV cp-52
[9] = in vitro; conditions: cattle (Bos taurus)
[10] = Cytotoxicity, MTT method, BHK cells; conditions: Syrian hamster (Mesocricetus auratus)
[11] = Cytotoxicity, MTT method, MT-4 cells; conditions: human
[12] = Cytotoxicity, MTT method, Vero-76 cells; conditions: African green monkey (Cercopithecus aethiops)
[13] = system: RSV A2; assay: Immunofluorescence attachment assay; assay type: cell-based, Human Respiratory Syncytial Virus (RSV); conditions: 4°C, Vero-76; 20 μM 10d, 6 μg/mL dextran sulfate, 5 μM 6-azauridine
Description: Compounds' inhibitory effects on virus-cell binding event was measured by immunofluorescence performed according to the method described previously with some modifications (Maric et al., [2011]). […] After this incubation period, the monolayers were washed three times in cold PBS in order to remove unbound viral particles and then were fixed in paraformaldehyde 4%. The presence of bound virus was detected by indirect immunofluorescence. […] Abcam, Cambridge, United Kingdom). Cells were then washed three times in PBS-Tween-100 and incubated with a 1:500 dilution of an Alexa Fluor 488-labeled anti-mouse secondary antibody (Molecular Probes, Eugene, Oreg.). After a series of washes in PBS-Tween-100, cells were mounted with Vectashield (Vector Laboratories, Burlingame, CA) containing 4′,6-diamidino-2-phenylindole (DAPI) and images of each well were captured with the ZOE Fluorescent Cell Imager (Biorad).

| Compound | EC50 [1] | EC50 [2] | EC50 [3] | EC50 [4] | EC50 [5] | EC50 [6] | EC50 [7] | IC50 [8] | melting point | CC50 [9] | CC50 [10] | CC50 [11] | CC50 at 5 days [12] | inhibition of viral attachment [13] | CC50 [12] |
| --- | --- | --- | --- | --- | --- | --- | --- | --- | --- | --- | --- | --- | --- | --- | --- |
| CCCNC(=O)Nc1ccc(-n2nc3cc(Cl)c(Cl)cc3n2)cc1 [10b, 1-[4-(5,6-dichloro-2H-benzo[d][1,2,3]triazol-2-yl)phenyl]-3-propylurea] | 3 µM | > 100 µM | > 78 µM | > 40 µM | > 40 µM | > 30 µM | > 30 µM | 7 ± 1 µM | > 300 °C | 78 µM | 40 µM | > 100 µM | 30 µM | – | – |
| dextran sulfate [reference compound] | – | – | – | – | – | – | – | – | – | – | – | – | – | inhibits viral attachment; also recorded: efficiently blocked viral attachment | – |
| COc1cc(C(=O)Nc2ccc(-n3nc4cc(Cl)c(Cl)cc4n3)cc2)cc(OC)c1OC [8d, N-[4-(5,6-dichloro-2H-benzo[d][1,2,3]triazol-2-yl)phenyl]-3,4,5-trimethoxybenzamide] | 3 µM | > 63 µM | 35 µM | > 35 µM | > 35 µM | > 80 µM | > 80 µM | 10 ± 2 µM | 199 to 201 °C | > 100 µM | 35 µM | 63 µM | 80 µM | – | – |
| CCC(=O)Nc1ccc(-n2nc3cc(Cl)c(Cl)cc3n2)cc1 [6b, N-[4-(5,6-dichloro-2H-benzo[d][1,2,3]triazol-2-yl)phenyl]propanamide] | > 100 µM | > 100 µM | > 100 µM | > 100 µM | > 100 µM | > 100 µM | > 100 µM | – | 258 to 260 °C | > 100 µM | > 100 µM | > 100 µM | > 100 µM | – | – |
| O=C(Nc1ccccc1)Nc1ccc(-n2nc3cc(Cl)c(Cl)cc3n2)cc1 [10e, 1-[4-(5,6-dichloro-2H-benzo[d][1,2,3]triazol-2-yl)phenyl]-3-phenylurea] | > 100 µM | > 100 µM | > 100 µM | > 100 µM | > 100 µM | > 100 µM | > 100 µM | – | > 290 °C | > 100 µM | > 100 µM | > 100 µM | > 100 µM | – | – |
| O=C(Nc1ccc(-n2nc3cc(Cl)c(Cl)cc3n2)cc1)Nc1cccc2ccccc12 [10k, 1-[4-(5,6-dichloro-2H-benzo[d][1,2,3]triazol-2-yl)phenyl]-3-naphtylurea] | > 100 µM | > 100 µM | > 100 µM | > 100 µM | > 100 µM | > 100 µM | > 100 µM | – | > 290 °C | > 100 µM | > 100 µM | > 100 µM | > 100 µM | – | – |
| O=C(Nc1ccc(Cl)cc1)Nc1ccc(-n2nc3cc(Cl)c(Cl)cc3n2)cc1 [10h, 1-[4-(5,6-dichloro-2H-benzo[d][1,2,3]triazol-2-yl)phenyl]-3-(4-chlorophenyl)urea] | > 100 µM | > 100 µM | > 100 µM | > 100 µM | > 100 µM | > 100 µM | > 100 µM | – | > 290 °C | > 100 µM | > 100 µM | > 100 µM | > 100 µM | – | – |
| O=c1cnn([C@@H]2O[C@H](CO)[C@@H](O)[C@H]2O)c(=O)[nH]1 [6-azauridine, reference compound] | 1.4 µM | – | – | – | – | – | – | – | – | – | – | – | ≥ 14 µM | not able to block viral binding | – |
| O=C(Nc1ccc(-n2nnc3cc(Cl)c(Cl)cc32)cc1)c1ccc(C(F)(F)F)cc1 [7g, N-[4-(5,6-dichloro-1H-benzo[d][1,2,3]triazol-1-yl)phenyl]-4-(trifluoromethyl)benzamide] | 5 µM | > 100 µM | > 100 µM | > 100 µM | > 100 µM | > 90 µM | > 90 µM | – | > 290 °C | > 100 µM | > 100 µM | > 100 µM | 9 µM | – | – |
| CCCCNC(=O)Nc1ccc(-n2nc3cc(Cl)c(Cl)cc3n2)cc1 [10c, 1-[4-(5,6-dichloro-2H-benzo[d][1,2,3]triazol-2-yl)phenyl]-3-butylurea] | > 100 µM | > 100 µM | > 100 µM | > 100 µM | > 100 µM | > 95 µM | > 95 µM | – | > 300 °C | > 100 µM | > 100 µM | > 100 µM | > 100 µM | – | 90 µM |
| O=C(Nc1ccc(-n2nc3cc(Cl)c(Cl)cc3n2)cc1)c1ccc([N+](=O)[O-])cc1 [8e, N-[4-(5,6-dichloro-2H-benzo[d][1,2,3]triazol-2-yl)phenyl]-4-nitrobenzamide] | 33 µM | > 100 µM | 4 µM | > 68 µM | > 68 µM | > 100 µM | > 100 µM | – | > 297 °C | > 100 µM | 68 µM | > 100 µM | > 100 µM | – | – |
| CCC(=O)Nc1ccc(-n2nnc3cc(Cl)c(Cl)cc32)cc1 [5b, N-[4-(5,6-dichloro-1H-benzo[d][1,2,3]triazol-1-yl)phenyl]propionamide] | 4 µM | > 28 µM | > 100 µM | > 54 µM | > 54 µM | > 30 µM | > 30 µM | – | 175 to 177 °C | > 100 µM | 54 µM | 28 µM | 30 µM | – | – |
| COc1cc(C(=O)Nc2ccc(-n3nnc4cc(Cl)c(Cl)cc43)cc2)cc(OC)c1OC [7d, N-[4-(5,6-dichloro-1H-benzo[d][1,2,3]triazol-1-yl)phenyl]-3,4,5-trimethoxybenzamide] | 5 µM | > 77 µM | > 100 µM | 78 µM | > 100 µM | > 90 µM | > 90 µM | – | 212 to 213 °C | > 100 µM | > 100 µM | 77 µM | 90 µM | – | – |
